Holding throughout (type): cell-based
Assay [1] deals with T1, AHR (Homo sapiens, UniProt P35869).
T1 sequence (P35869 11-848): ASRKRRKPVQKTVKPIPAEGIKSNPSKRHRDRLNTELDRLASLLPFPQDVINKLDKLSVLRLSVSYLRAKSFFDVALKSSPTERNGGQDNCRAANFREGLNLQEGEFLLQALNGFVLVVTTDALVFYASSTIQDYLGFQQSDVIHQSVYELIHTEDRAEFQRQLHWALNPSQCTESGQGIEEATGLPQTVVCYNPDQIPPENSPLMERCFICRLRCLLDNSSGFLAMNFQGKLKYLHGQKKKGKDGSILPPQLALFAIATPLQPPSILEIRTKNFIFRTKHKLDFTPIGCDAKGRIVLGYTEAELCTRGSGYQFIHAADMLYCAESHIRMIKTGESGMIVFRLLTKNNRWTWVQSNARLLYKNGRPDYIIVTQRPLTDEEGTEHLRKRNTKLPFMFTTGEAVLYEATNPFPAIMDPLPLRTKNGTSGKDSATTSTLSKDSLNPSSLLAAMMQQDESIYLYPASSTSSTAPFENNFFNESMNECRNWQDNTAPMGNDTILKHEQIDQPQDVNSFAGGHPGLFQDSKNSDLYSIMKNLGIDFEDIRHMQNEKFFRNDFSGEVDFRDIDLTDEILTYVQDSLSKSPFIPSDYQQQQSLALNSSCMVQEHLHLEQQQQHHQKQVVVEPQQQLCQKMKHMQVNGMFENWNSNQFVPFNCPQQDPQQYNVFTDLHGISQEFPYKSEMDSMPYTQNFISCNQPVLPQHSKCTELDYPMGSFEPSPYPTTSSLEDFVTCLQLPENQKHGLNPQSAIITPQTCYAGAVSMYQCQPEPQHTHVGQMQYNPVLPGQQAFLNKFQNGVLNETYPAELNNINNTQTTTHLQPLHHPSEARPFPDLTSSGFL
Put plainly: In vitro assay 3: AHR-regulated CYP1A1 expression in human cell line (U937, qPCR, KA stimulation). The settings on record: U937 cells, 200 uM KA, 6 hours, CYP1A1 expression by qPCR; read-out: Assay 3: Hum CYP1A1 Antagonism IC50. The procedure: In Vitro Assay 3: AHR-Regulated CYP1A1 Expression in Human Cell Line
To assess the AHR inhibitory activity of the substances described in this application, the ability thereof to antagonise ligand-induced AHR gene regulation in a dose-dependent manner was quantified. For this purpose, quantitative PCR analysis was used to determine expression of the AHR-regulated gene CYP1A1 in a human monocytic U937 cell line upon stimulation with 200 uM KA in the presence and absence of AHR inhibitor. […] CYP1A1 expression was induced with 200 uM KA (positive control) in the presence or absence of the substances for 6 hours. Human U937 cells were typically incubated with eight different concentrations of the substances (1 nM, 3 nM, 10 nM, 30 nM, 100 nM, 300 nM, 1 uM and 3 uM) and analyzed in duplicate on the same microtitre plate. […] Unstimulated cells were used as the negative control. Taqman probes for human CYP1A1 (Hs01054797_g1) and human HPRT (Hs02800695_m1) were used to analyze fold expression of CYP1A1 of HPRT. Quantitation was performed on a Taqman SDS7900HT.

For assay [2], the target named is T1, AHR. Put plainly: In vitro assay 1: antagonism in human cell line (transactivation assay, U87 cells prestimulated with kynurenic acid, DRE firefly luciferase reporter). Details: host or cells: U87 glioblastoma cells, stably transfected with DRE firefly luciferase and renilla reporter constructs. Conditions: 150 uM kynurenic acid, 20 hours, read-out: Assay 1: AHR-luc Hum Antagonism IC50. An outline of the steps:
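Antagonism measured after kynurenic acid prestimulation in U87 cells that express AHR endogenously and stably harbor a firefly luciferase gene under DRE control plus a constitutive renilla construct. Positive and negative controls served for normalization.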

Assay [3] addresses T1, AHR. The assay is described as follows: In vitro assay 2: agonism in human cell line (transactivation assay, U87 cells, DRE firefly luciferase reporter). Details: host or cells: U87 glioblastoma cells, stably transfected with DRE firefly luciferase and renilla reporter constructs. Conditions: no kynurenic acid, 20 hours, read-out: Assay 2: AHR-luc Hum Agonism IC50. An outline of the steps:
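Agonist readout: DRE firefly luciferase, with constitutive renilla reporter, in stably transfected U87 cells expressing AHR endogenously. Normalization used positive control (300 uM kynurenic acid) and negative control.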

SMILES strings stand for the structures.

For the molecule `Cn1cc(-n2nc(-c3ccc(C(F)F)cc3)cc(C(=O)N[C@@H]3COC[C@@H]3O)c2=O)cn1` (single isomer, unassigned) [Example 315, 6-[4-(Difluoromethyl)phenyl]-N-[(cis)-4-hydroxytetrahydro-furan-3-yl]-2-(1-methyl-1H-pyrazol-4-yl)-3-oxo-2,3-dihydropyridazine-4-carboxamide], the IC50 was 11.9 nM at AHR [1], 15.9 nM at AHR [2] and > 20000 nM at AHR [3].

Regarding `C[C@@H](CO)NC(=O)c1cc(-c2ccc(C(F)F)cc2)nn(-c2cnn(C)c2)c1=O` [Example 58, 6-[4-(Difluoromethyl)phenyl]-N-[(2S)-1-hydroxypropan-2-yl]-2-(1-methyl-1H-pyrazol-4-yl)-3-oxo-2,3-dihydropyridazine-4-carboxamide], the IC50 at AHR [1] is 10.8 nM; at AHR [2], 18.6 nM; on AHR [3], > 20000 nM.

With `Cn1cc(-n2nc(-c3ccc(C(F)(F)F)cc3)cc(C(=O)N[C@@H]3COC[C@@H]3O)c2=O)cn1` (single isomer, unassigned) [Example 231, (−)-N-cis-4-Hydroxytetra-hydrofuran-3-yl-2-(1-methyl-1H-pyrazol-4-yl)-3-oxo-6-[4-(trifluoromethyl)phenyl]-2,3-dihydropyridazine-4-carboxamide], the 50% inhibitory concentration (IC50) was 9.93 nM at AHR [1], 7.89 nM at AHR [2] and > 20000 nM on AHR [3].

On to `O=C(NCC(O)C(F)(F)F)c1cc(-c2ccc(Cl)cc2)nn(-c2cccnc2)c1=O` (racemic) [Example 78, 6-(4-Chlorophenyl)-3-oxo-2-(pyridin-3-yl)-N-[(2RS)-3,3,3-trifluoro-2-hydroxypropyl]-2,3-dihydropyridazine-4-carboxamide], for which the half-maximal inhibitory concentration (IC50) on AHR [1] was 4.81 nM; at AHR [2] it was 6.68 nM; at AHR [3], > 20000 nM.

Turning to `Cc1ccc(-c2cc(C(=O)NCC(O)C(F)F)c(=O)n(-c3cnn(C)c3)n2)cc1` (single isomer, unassigned; enantiomer 2) [Example 15, N-(3,3-Difluoro-2-hydroxypropyl)-6-(4-methylphenyl)-2-(1-methyl-1H-pyrazol-4-yl)-3-oxo-2,3-dihydropyridazine-4-carboxamide, Enantiomer 2], the IC50 was 122 nM at AHR [1], 26.5 nM on AHR [2] and > 20000 nM on AHR [3].

As for `Cn1cc(-n2nc(-c3ccc(C(F)(F)F)cc3)cc(C(=O)N[C@H](CO)CF)c2=O)cn1` [Example 211, N-[(2R)-1-Fluoro-3-hydroxypropan-2-yl]-2-(1-methyl-1H-pyrazol-4-yl)-3-oxo-6-[4-(trifluoromethyl)phenyl]-2,3-dihydropyridazine-4-carboxamide], the IC50 at AHR [1] was 2.67 nM; on AHR [2], 1.62 nM; on AHR [3], > 20000 nM.

On to `O=C(N[C@@H]1CCC[C@@H]1O)c1cc(-c2ccc(C(F)(F)F)cc2)nn(-c2cccnc2)c1=O` [Example 103, N-[(1R,2S)-2-Hydroxycyclopentyl]-3-oxo-2-(pyridin-3-yl)-6-[4-(trifluoromethyl)phenyl]-2,3-dihydropyridazine-4-carboxamide], for which the values for the half-maximal inhibitory concentration (IC50) at AHR [1], at AHR [2] and at AHR [3] were 24.5 nM, 13.3 nM and > 20000 nM, respectively.

With `Cc1ccc(-c2cc(C(=O)N[C@@H](C)CO)c(=O)n(-c3cccnc3)n2)cc1` [Example 152, N-[(2S)-1-Hydroxypropan-2-yl]-6-(4-methylphenyl)-3-oxo-2-(pyridin-3-yl)-2,3-dihydropyridazine-4-carboxamide], the IC50 at AHR [1] was 21.3 nM; on AHR [2], 24.1 nM; on AHR [3] it was > 20000 nM.

As for `O=C(N[C@H]1COCC[C@H]1O)c1cc(-c2ccc(Cl)cc2)nn(-c2cccnc2)c1=O` [Example 175, 1,5-Anhydro-2-({[6-(4-chlorophenyl)-3-oxo-2-(pyridin-3-yl)-2,3-dihydropyridazin-4-yl]carbonyl}amino)-2,4-dideoxy-D-erythro-pentitol], the IC50 on AHR [1] was 112 nM; on AHR [2], 66.1 nM; at AHR [3], > 20000 nM.

`O=C(N[C@H](CO)C1CC1)c1cc(-c2ccc(C(F)(F)F)cc2)nn(-c2cccnc2)c1=O` [Example 94, N-[(1S)-1-Cyclopropyl-2-hydroxyethyl]-3-oxo-2-(pyridin-3-yl)-6-[4-(trifluoromethyl)phenyl]-2,3-dihydropyridazine-4-carboxamide]: the IC50 on AHR [1] is 16.5 nM; at AHR [2], 8.44 nM; on AHR [3], > 20000 nM.

For the molecule `C[C@@H](NC(=O)c1cc(-c2ccc(C(F)(F)F)cc2)nn(-c2cccnc2)c1=O)C(C)(C)O` [Example 234, N-[(2R)-3-Hydroxy-3-methylbutan-2-yl]-3-oxo-2-(pyridin-3-yl)-6-[4-(trifluoromethyl)phenyl]-2,3-dihydropyridazine-4-carboxamide], the values for the IC50 on AHR [1], on AHR [2] and at AHR [3] were 9.6 nM, 8.42 nM and > 20000 nM, respectively.

As for `C[C@H](NC(=O)c1cc(-c2ccc(C(F)(F)F)cc2)nn(-c2cn[nH]c2)c1=O)C(C)(C)O` [Example 260, N-[(2S)-3-Hydroxy-3-methylbutan-2-yl]-3-oxo-2-(1H-pyrazol-4-yl)-6-[4-(trifluoromethyl)phenyl]-2,3-dihydropyridazine-4-carboxamide], the results for the IC50 on AHR [1], on AHR [2] and on AHR [3] were 14.4 nM, 29.4 nM and > 20000 nM, respectively.

For `O=C(NC[C@H](O)C(F)(F)F)c1cc(-c2ccc(Cl)cc2)nn(-c2csc(Cl)c2)c1=O` [Example 232, 6-(4-Chlorophenyl)-2-(5-chloro-3-thienyl)-3-oxo-N-[(2S)-3,3,3-trifluoro-2-hydroxypropyl]-2,3-dihydropyridazine-4-carboxamide], the results for the IC50 on AHR [1], at AHR [2] and on AHR [3] were 7.38 nM, 8.16 nM and > 20000 nM, respectively.

For the molecule `O=C(N[C@H]1COC[C@H]1O)c1cc(-c2ccc(OC(F)(F)F)cc2)nn(-c2cccnc2)c1=O` (single isomer, unassigned; enantiomer 1) [Example 158, N-[(cis)-4-Hydroxytetrahydrofuran-3-yl]-3-oxo-2-(pyridin-3-yl)-6-[4-(trifluoromethoxy)phenyl]-2,3-dihydropyridazine-4-carboxamide, Enantiomer 1], the IC50 on AHR [1] is 25.2 nM; at AHR [2] it was 21.8 nM; at AHR [3], > 20000 nM.

`CC(C)(O)CNC(=O)c1cc(-c2ccc(C(F)F)cc2)nn(-c2cccnc2)c1=O` [Example 322, 6-[4-(Difluoromethyl)phenyl]-N-(2-hydroxy-2-methylpropyl)-3-oxo-2-(pyridin-3-yl)-2,3-dihydropyridazine-4-carboxamide]: the IC50 on AHR [1] was 31.1 nM; on AHR [2] it was 56.7 nM; at AHR [3] it was > 20000 nM.

`C[C@H](NC(=O)c1cc(-c2ccc(OC(F)F)cc2)nn(-c2cnn(C)c2)c1=O)C(C)(C)O` [Example 309, 6-[4-(Difluoromethoxy)phenyl]-N-[(2S)-3-hydroxy-3-methylbutan-2-yl]-2-(1-methyl-1H-pyrazol-4-yl)-3-oxo-2,3-dihydropyridazine-4-carboxamide]: the IC50 is 40.3 nM at AHR [1], 16.4 nM at AHR [2] and > 20000 nM on AHR [3].

For the molecule `C[C@@H](CO)NC(=O)c1cc(-c2ccc(Cl)cc2)nn(-c2cncc(F)c2)c1=O` [Example 80, 6-(4-Chlorophenyl)-2-(5-fluoropyridin-3-yl)-N-[(2S)-1-hydroxypropan-2-yl]-3-oxo-2,3-dihydropyridazine-4-carboxamide], the IC50 on AHR [1] was 32.6 nM; on AHR [2], 27.1 nM; at AHR [3], > 20000 nM.

Source of the values: US12522594B2, “2-heteroaryl-3-oxo-2,3-dihydropyridazine-4-carboxamides for the treatment of cancer” (Deutsches Krebsforschungszentrum, priority 2017, dated 2026).
